Results on five compounds are retold here after ChEMBL document CHEMBL1150906, “Cytotoxic and insecticidal constituents of the unripe fruit of Persea americana” (J Nat Prod, 1998).

The structures appear in SMILES notation. Converted amounts (≈) assume the structure as drawn.

One data set concerns PC-3. As to the kind of experiment: Cytotoxicity against human PC3 cells by MTT assay. The class given is functional, cell-based. For orientation: Formazan colour is commonly taken as a measure of viable cells.
Another data set concerns MIA PaCa-2. Nature of the data set: Cytotoxicity against human MIAPaCa2 cells by MTT assay. The class given is functional, cell-based.
The test system of a further data set is A498. Nature of the data set: Cytotoxicity against human A498 cells by MTT assay. The class given is functional, cell-based.
For a further data set, the system named is HT-29. As to the kind of experiment: Cytotoxicity against human HT-29 cells by MTT assay. Type of data set: functional, cell-based.
A further data set has as its system A549. As to the kind of experiment: Cytotoxicity against human A549 cells by MTT assay. The class given is functional, cell-based.
The next data set concerns Aedes aegypti. As to the kind of experiment: Insecticidal activity against yellow fever mosquito larvae […] in bovine liver powder after 4 days by MES assay. Type of data set: functional. The settings on record: 96 h.
In another data set the test system is MCF7. As to the kind of experiment: Cytotoxicity against human MCF7 cells by MTT assay. Type of data set: functional, cell-based.
A short description of data set [1]: Toxicity in Artemia salina. The settings on record: in vivo. Type of data set: organism-based.

Regarding `CCCCCCCCCCCCCCCC(O)CC(O)CO` (stereo unspecified), the IC50 is 1.2 µg/mL (≈ 3.79 µM) in the data set with PC-3; > 10 µg/mL with MIA PaCa-2; 2.7 µg/mL (≈ 8.53 µM) in the data set with A498; 3 µg/mL (≈ 9.48 µM) with HT-29; 3 µg/mL (≈ 9.48 µM) in the data set on A549; 3.2 µg/mL (≈ 10.1 µM) in the data set on MCF7. Besides, the values for the LC50 (in the data set with Aedes aegypti; in data set [1]) were 1.8 µg/mL (≈ 5.69 µM) and 2.8 µg/mL (≈ 8.85 µM), respectively.
On to `C=CCCCCCCCCCCCC(O)CC(O)CO` (stereo unspecified) [AVOCADENE], for which the IC50 with PC-3 came to 0.46 µg/mL (≈ 1.61 µM); with MIA PaCa-2, 5.3 µg/mL (≈ 18.5 µM); with A498 it was 3.6 µg/mL (≈ 12.6 µM); in the data set on HT-29, 2.6 µg/mL (≈ 9.08 µM); in the data set on A549, 3.4 µg/mL (≈ 11.9 µM); with MCF7, 4.4 µg/mL (≈ 15.4 µM). For the same compound, the LC50 was determined as 0.21 µg/mL (≈ 0.733 µM) in the data set on Aedes aegypti and 1.3 µg/mL (≈ 4.54 µM) in data set [1].
As for `C#CCCCCCCCCCCCC(O)CC(O)CO` (stereo unspecified) [AVOCADYNE], the half-inhibitory concentration (IC50) is 0.061 µg/mL (≈ 0.214 µM) in the data set on PC-3; > 10 µg/mL in the data set on MIA PaCa-2; 4.1 µg/mL (≈ 14.4 µM) in the data set on A498; 8.9 µg/mL (≈ 31.3 µM) in the data set with HT-29; 4.8 µg/mL (≈ 16.9 µM) with A549; 6.5 µg/mL (≈ 22.9 µM) in the data set on MCF7. For the same compound, the median lethal concentration (LC50) with Aedes aegypti was found to be 0.077 µg/mL (≈ 0.271 µM); in data set [1] it was 0.64 µg/mL (≈ 2.25 µM).
For the compound `COc1cccc2c1C(=O)c1c(O)c3c(c(O)c1C2=O)C[C@@](O)(C(=O)CO)C[C@@H]3O[C@H]1C[C@H](N)[C@H](O)[C@H](C)O1` [DOXORUBICIN], the IC50 stood at 0.011 µg/mL (≈ 0.0202 µM) in the data set with PC-3; 0.0024 µg/mL (≈ 0.00442 µM) in the data set on MIA PaCa-2; 0.0049 µg/mL (≈ 0.00902 µM) in the data set on A498; 0.0053 µg/mL (≈ 0.00975 µM) with HT-29; 0.0022 µg/mL (≈ 0.00405 µM) in the data set with A549; 0.081 µg/mL (≈ 0.149 µM) in the data set with MCF7.
On to `C=C(C)[C@H]1Cc2c(ccc3c2O[C@@H]2COc4cc(OC)c(OC)cc4[C@@H]2C3=O)O1` [ROTENONE], for which the LC50 with Aedes aegypti amounted to 0.75 µg/mL (≈ 1.9 µM).

One may read the IC50 as the concentration that gives 50% inhibition. As usually defined, the LC50 is the concentration lethal to half of the exposed cells or organisms. High values mean a less lethal substance, low ones a more lethal substance.
